Results taken from US7074789B2, “Kinase inhibitors” (Amgen Inc., priority 1999, dated 2006).

Experiments:
Format in all cases: biochemical
FGFR1 = biological target: T1, FGFR1 (Homo sapiens, UniProt P11362); experiment: Kinase inhibition assay (33P transfer), FGFR1; settings: read-out: FGFR1-1
T1 construct: Kinases are expressed as either kinase domains or full length constructs; made in house

Zap-70 = biological target: T2, Zap-70 (Homo sapiens, UniProt P43403); experiment: Kinase inhibition assay (33P transfer), Zap-70; settings: Table 3; read-out: Zap-1
T2 construct: Kinases are expressed as either kinase domains or full length constructs; made in house
T2 sequence (P43403 1-619): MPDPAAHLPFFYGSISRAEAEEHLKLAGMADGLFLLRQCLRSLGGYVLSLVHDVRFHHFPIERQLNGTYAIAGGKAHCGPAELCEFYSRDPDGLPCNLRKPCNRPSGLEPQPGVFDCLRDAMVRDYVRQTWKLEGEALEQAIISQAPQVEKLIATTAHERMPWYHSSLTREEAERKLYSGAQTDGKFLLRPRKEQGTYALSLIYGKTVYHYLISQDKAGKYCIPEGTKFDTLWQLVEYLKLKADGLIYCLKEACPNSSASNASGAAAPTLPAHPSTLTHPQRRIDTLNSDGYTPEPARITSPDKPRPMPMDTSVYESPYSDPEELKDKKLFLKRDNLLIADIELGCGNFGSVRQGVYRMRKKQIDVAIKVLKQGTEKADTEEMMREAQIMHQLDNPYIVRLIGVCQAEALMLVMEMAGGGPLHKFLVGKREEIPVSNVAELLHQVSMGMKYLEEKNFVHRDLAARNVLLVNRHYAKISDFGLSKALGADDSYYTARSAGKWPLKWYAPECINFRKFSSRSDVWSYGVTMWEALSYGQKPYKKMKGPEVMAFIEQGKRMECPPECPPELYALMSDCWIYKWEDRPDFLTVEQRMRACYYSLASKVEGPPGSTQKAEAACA
Method in brief: (§1)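 Enzyme activity is taken as the amount of 33PO4 moved from ATP onto poly(Glu, Tyr) 4:1 or poly(Arg, Ser) 3:1 fixed to the plate surface. Unbound label is removed with 0.5% phosphoric acid before scintillation counting.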

Tek = biological target: T3, Tek (Homo sapiens, UniProt Q02763); experiment: Kinase inhibition assay (33P transfer), Tek; settings: read-out: Tek-1
T3 construct: Kinases are expressed as either kinase domains or full length constructs; made in house
Method in brief: (§2)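 Recombinant kinase domains or full-length GST- or His-tagged constructs, from E. coli or baculovirus/High Five cells, sometimes with regulatory polypeptides. Transfer of 33P from ATP to plate-bound poly(Glu,Tyr) 4:1 or poly(Arg,Ser) 3:1 counted by liquid scintillation after phosphoric acid wash; IC50 is the concentration halving incorporation.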

Kdr = biological target: T4, Kdr (Homo sapiens, UniProt P35968); experiment: Kinase inhibition assay (33P transfer), Kdr; settings: Table 3; read-out: KDR-1
T4 construct: Kinases are expressed as either kinase domains or full length constructs; made in house
Method in brief: as §1

Flt-1 = biological target: T5, Flt-1 (Homo sapiens, UniProt P17948); experiment: Kinase inhibition assay (33P transfer), Flt-1
T5 construct: Kinases are expressed as either kinase domains or full length constructs; made in house
From the text: (§3) The inhibitor compounds described herein are screened in the following manner. Kinases suitable for use in the following protocol to determine kinase activity of the compounds described herein include, -but are not limited to: Lck, Lyn, Src, Fyn, Syk, Zap-70, Itk, Tec, Btk, EGFR, ErbB2, Kdr, Flt-1, Flt-3, Tek, c-Met, InsR, and AKT.
(§4) Kinases are expressed as either kinase domains or full length constructs fused to glutathione S-transferase (GST) or polyHistidine tagged fusion proteins in either E. colior Baculovirus-High Five expression systems. They are purified to near homogeneity by affinity chromatography essentially as previously described (Lehr et al., 1996; Gish et al., 1995). In some instances, kinases are co-expressed or mixed with purified or partially purified regulatory polypeptides prior to measurement of activity.
(§5) Kinase activity and inhibition are measured essentially by established protocols (Braunwalder et al., 1996). Briefly, The transfer of ^33PO4 from ATP to the synthetic substrates poly(Glu, Tyr) 4:1 or poly(Arg, Ser) 3:1 attached to the bioactive surface of microtiter plates serves as the basis to evaluate enzyme activity. After an incubation period, the amount of phosphate transferred is measured by first washing the plate with 0.5% phosphoric acid, adding liquid scintillant, and then counting in a liquid scintillation detector. The IC50 is determined by the concentration of compound that causes a 50% reduction in the amount of […] incorporated onto the substrate bound to the plate.

Itk = biological target: T6, Itk (Homo sapiens, UniProt Q08881); experiment: Kinase inhibition assay (33P transfer), Itk; settings: Table 3; read-out: Itk-1
T6 construct: Kinases are expressed as either kinase domains or full length constructs; made in house
T6 sequence (Q08881 1-620): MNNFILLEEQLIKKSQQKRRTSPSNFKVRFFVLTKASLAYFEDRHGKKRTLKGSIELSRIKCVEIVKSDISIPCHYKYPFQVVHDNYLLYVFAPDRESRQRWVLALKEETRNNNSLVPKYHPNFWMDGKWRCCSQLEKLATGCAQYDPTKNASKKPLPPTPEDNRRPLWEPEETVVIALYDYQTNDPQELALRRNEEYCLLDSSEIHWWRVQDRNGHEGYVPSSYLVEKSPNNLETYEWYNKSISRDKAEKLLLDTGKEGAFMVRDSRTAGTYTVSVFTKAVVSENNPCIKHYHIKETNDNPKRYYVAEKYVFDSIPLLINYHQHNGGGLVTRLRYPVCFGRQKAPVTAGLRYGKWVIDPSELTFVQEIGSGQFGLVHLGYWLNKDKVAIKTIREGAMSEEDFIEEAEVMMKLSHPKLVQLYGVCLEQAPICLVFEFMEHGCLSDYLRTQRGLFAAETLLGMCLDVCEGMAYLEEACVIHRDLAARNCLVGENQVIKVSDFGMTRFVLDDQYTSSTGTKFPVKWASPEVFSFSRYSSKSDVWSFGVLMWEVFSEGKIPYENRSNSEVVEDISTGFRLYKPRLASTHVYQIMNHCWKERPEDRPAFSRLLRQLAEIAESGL
Method in brief: as §2

Src = biological target: T7, Src (Homo sapiens, UniProt P12931); experiment: Kinase inhibition assay (33P transfer), Src; settings: Table 6, Src-1 kinase inhibition class
T7 construct: Kinases are expressed as either kinase domains or full length constructs; made in house
From the text: as §3, §4, §5

PDGFRB = biological target: T8, PDGFRB (Homo sapiens, UniProt P09619); experiment: Kinase inhibition assay (33P transfer), PDGFRB; settings: read-out: PDGFRB-1
T8 construct: Kinases are expressed as either kinase domains or full length constructs; made in house

ErbB4 = biological target: T9, ErbB4 (Homo sapiens, UniProt Q15303); experiment: Kinase inhibition assay (33P transfer), ErbB4; settings: read-out: ErbB4-1
T9 construct: Kinases are expressed as either kinase domains or full length constructs; made in house

AKT = biological target: T10, AKT (Homo sapiens, UniProt Q9Y243); experiment: Kinase inhibition assay (33P transfer), AKT; settings: Table 2, kinase inhibition class; read-out: AKT3-1
T10 construct: Kinases are expressed as either kinase domains or full length constructs; made in house
Method in brief: as §1

c-Met = biological target: T11, c-Met (Homo sapiens, UniProt P08581); experiment: Kinase inhibition assay (33P transfer), c-Met; settings: Table 2, kinase inhibition class; read-out: Met-1
T11 construct: Kinases are expressed as either kinase domains or full length constructs; made in house
Method in brief: as §2

Fyn = biological target: T12, Fyn (Homo sapiens, UniProt P06241); experiment: Kinase inhibition assay (33P transfer), Fyn; settings: read-out: Fyn-1
T12 construct: Kinases are expressed as either kinase domains or full length constructs; made in house
From the text: as §3, §4, §5

EGFR = biological target: T13, EGFR (Homo sapiens, UniProt P00533); experiment: Kinase inhibition assay (33P transfer), EGFR; settings: Table 2, kinase inhibition class; read-out: EGFR-1
T13 construct: Kinases are expressed as either kinase domains or full length constructs; made in house
Method in brief: as §2

Lck = biological target: T14, Lck (Homo sapiens, UniProt P06239); experiment: Kinase inhibition assay (33P transfer), Lck; settings: Table 3; read-out: Lck-1
T14 construct: Kinases are expressed as either kinase domains or full length constructs; made in house
Method in brief: as §1

Hck-1 = biological target: T15, Hck-1 (Homo sapiens, UniProt P08631); experiment: Kinase inhibition assay (33P transfer), Hck; settings: Table 6, Hck-1 kinase inhibition class
T15 construct: Kinases are expressed as either kinase domains or full length constructs; made in house

Lyn = biological target: T16, Lyn (Homo sapiens, UniProt P07948); experiment: Kinase inhibition assay (33P transfer), Lyn; settings: Table 6, Lyn-1 kinase inhibition class
T16 construct: Kinases are expressed as either kinase domains or full length constructs; made in house
From the text: as §3, §4, §5

T3 sequence (Q02763 23-1124, species assumed): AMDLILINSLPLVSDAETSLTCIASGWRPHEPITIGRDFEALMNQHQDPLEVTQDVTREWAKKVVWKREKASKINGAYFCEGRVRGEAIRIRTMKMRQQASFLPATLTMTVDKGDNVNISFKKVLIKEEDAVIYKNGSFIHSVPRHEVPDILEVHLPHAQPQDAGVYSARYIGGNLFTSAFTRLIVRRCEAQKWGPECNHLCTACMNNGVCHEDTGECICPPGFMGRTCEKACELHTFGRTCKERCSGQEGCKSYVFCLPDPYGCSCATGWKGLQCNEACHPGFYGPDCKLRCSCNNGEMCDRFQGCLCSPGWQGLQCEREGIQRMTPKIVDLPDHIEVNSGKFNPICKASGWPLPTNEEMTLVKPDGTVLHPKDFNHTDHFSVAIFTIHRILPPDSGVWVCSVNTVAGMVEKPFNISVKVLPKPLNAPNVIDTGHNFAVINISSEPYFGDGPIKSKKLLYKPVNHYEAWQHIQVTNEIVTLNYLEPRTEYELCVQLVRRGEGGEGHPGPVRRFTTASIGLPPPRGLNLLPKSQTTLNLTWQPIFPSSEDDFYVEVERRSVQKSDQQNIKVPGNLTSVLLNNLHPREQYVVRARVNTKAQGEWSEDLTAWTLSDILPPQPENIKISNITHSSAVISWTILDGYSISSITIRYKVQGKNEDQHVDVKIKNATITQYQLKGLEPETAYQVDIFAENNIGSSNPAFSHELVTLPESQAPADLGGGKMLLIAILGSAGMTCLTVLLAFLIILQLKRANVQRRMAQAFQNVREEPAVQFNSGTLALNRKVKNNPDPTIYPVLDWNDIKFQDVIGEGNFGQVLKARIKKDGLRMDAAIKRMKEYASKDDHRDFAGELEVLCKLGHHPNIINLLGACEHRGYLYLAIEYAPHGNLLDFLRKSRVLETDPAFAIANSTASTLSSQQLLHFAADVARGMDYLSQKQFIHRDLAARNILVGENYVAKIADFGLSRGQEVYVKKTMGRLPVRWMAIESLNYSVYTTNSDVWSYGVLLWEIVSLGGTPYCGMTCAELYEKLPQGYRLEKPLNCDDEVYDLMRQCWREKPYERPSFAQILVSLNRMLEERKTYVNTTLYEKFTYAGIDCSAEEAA
T4 sequence (P35968 20-1356, species assumed): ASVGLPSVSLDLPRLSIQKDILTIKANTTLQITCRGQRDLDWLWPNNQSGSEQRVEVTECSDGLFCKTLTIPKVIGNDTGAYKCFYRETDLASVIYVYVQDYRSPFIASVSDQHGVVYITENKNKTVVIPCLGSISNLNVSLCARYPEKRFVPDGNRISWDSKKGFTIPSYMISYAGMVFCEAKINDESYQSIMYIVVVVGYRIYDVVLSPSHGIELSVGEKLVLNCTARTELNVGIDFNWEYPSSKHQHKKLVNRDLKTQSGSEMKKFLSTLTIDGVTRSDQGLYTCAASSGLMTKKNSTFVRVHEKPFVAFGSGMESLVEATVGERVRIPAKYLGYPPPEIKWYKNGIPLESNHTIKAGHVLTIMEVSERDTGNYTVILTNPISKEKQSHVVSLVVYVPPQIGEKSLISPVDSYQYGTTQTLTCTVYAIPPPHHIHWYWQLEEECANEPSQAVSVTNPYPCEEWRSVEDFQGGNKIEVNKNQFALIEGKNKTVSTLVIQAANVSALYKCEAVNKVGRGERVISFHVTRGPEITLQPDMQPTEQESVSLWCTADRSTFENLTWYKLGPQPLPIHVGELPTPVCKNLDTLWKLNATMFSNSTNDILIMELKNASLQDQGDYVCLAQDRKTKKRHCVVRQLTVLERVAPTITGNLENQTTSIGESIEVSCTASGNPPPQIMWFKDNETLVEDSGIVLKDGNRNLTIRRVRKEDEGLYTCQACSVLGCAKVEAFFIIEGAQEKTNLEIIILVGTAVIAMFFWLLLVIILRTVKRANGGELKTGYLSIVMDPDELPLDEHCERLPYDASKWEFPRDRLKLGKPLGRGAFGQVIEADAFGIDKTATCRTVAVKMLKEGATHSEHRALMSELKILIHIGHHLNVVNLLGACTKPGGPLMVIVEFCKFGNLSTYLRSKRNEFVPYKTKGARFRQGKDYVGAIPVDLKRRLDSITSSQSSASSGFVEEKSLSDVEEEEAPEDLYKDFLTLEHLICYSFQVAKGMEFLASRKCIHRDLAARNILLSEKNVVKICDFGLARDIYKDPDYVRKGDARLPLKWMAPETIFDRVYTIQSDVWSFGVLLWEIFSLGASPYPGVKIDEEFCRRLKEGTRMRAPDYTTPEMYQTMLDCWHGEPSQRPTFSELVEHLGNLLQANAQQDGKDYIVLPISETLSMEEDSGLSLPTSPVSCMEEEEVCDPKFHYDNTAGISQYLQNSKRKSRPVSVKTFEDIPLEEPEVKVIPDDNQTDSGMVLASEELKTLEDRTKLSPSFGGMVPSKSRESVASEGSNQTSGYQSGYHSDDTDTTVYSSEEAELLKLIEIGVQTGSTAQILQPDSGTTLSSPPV
T8 sequence (P09619 33-1106, species assumed): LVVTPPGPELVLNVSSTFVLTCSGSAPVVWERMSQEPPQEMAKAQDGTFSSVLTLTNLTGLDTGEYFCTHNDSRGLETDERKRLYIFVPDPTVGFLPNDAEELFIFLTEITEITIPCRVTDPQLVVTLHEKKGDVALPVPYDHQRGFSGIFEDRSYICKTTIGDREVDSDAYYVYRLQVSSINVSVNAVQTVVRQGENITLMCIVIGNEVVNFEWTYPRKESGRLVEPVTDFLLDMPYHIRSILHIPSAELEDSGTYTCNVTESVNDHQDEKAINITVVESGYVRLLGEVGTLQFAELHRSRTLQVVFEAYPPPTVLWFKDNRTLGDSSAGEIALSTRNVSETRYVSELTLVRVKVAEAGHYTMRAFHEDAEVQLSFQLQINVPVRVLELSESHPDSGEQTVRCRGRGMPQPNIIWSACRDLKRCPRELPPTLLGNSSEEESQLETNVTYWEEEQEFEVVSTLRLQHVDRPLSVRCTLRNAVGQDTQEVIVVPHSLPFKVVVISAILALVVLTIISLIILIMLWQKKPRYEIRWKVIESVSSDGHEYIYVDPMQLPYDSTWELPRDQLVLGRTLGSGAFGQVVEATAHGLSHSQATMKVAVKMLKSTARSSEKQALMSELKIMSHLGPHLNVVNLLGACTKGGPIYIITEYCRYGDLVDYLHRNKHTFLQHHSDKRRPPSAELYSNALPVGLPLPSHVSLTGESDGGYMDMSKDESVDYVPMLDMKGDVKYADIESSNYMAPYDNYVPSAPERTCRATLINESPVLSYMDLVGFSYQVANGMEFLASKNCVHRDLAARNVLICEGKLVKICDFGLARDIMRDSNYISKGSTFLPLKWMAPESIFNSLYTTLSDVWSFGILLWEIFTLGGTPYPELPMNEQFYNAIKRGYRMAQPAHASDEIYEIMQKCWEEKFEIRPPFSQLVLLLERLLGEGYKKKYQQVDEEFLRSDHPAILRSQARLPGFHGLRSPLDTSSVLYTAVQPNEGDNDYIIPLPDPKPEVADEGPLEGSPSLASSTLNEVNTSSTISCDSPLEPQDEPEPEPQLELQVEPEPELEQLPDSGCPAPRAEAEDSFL
T1 sequence (P11362 22-822, species assumed): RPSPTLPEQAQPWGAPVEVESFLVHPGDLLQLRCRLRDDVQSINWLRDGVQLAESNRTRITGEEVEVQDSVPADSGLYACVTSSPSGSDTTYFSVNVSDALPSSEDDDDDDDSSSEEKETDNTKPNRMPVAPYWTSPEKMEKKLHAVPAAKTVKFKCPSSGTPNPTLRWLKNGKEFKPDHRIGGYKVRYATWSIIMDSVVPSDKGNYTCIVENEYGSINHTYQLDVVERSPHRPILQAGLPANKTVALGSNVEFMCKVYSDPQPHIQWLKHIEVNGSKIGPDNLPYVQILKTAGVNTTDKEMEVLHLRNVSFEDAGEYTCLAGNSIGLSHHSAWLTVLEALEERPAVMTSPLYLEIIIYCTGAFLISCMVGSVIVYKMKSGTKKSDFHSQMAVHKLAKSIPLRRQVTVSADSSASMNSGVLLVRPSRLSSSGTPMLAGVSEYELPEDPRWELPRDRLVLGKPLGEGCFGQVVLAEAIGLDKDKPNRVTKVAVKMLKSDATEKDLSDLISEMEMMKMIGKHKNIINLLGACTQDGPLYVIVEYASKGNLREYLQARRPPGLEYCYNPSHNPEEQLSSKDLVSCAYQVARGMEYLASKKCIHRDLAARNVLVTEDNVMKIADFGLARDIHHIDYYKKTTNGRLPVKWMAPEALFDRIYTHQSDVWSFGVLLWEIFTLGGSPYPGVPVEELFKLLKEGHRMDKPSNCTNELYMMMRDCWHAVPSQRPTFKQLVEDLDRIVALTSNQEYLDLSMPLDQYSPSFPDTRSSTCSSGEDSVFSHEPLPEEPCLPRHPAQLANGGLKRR
T15 sequence (P08631 whole entry, the tested form may be a part): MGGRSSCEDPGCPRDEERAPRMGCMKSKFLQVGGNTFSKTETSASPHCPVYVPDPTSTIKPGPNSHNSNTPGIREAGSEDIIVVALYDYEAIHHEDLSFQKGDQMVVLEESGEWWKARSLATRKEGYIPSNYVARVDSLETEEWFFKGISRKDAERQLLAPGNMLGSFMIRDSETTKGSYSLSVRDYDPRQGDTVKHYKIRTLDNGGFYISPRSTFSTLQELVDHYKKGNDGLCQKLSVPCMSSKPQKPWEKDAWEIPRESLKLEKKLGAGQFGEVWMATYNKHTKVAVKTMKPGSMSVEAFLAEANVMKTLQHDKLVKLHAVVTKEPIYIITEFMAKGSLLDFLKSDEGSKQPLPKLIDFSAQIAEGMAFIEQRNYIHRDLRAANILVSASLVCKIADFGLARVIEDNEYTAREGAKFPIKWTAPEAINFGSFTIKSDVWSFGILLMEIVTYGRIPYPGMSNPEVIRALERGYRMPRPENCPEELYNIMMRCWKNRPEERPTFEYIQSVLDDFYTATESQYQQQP

IC50 (FGFR1) [µM] | IC50 (Zap-70) [µM] | IC50 (Tek) [µM] | IC50 (Kdr) [µM] | IC50 (Flt-1) [µM] | IC50 (Itk) [µM] | IC50 (Src) [µM] | IC50 (PDGFRB) [µM] | IC50 (ErbB4) [µM] | IC50 (AKT) [µM] | IC50 (c-Met) [µM] | IC50 (Fyn) [µM] | IC50 (EGFR) [µM] | IC50 (Lck) [µM] | IC50 (Hck-1) [µM] | IC50 (Lyn) [µM] | SMILES
< 0.863 | > 9.71 | > 9.71 | < 0.863 | 0.863 to 5.18 | > 9.71 | 0.863 to 5.18 | < 0.863 | > 9.71 | > 9.71 | < 0.863 | > 9.71 | > 9.71 | 7.55 to 9.71 | > 9.71 | 0.863 to 5.18 | CCOC(=O)Cc1cn(-c2ncnc(Nc3cc(OC)c(OC)c(OC)c3)n2)c2ccccc12 [Compound 411]
< 0.89 | > 10 | > 10 | < 0.89 | < 0.89 | > 10 | < 0.89 | < 0.89 | > 10 | > 10 | > 10 | < 0.89 | > 10 | < 0.89 | > 10 | < 0.89 | COc1cc(Nc2ncnc(-n3c(NCC(C)C)nc4ccccc43)n2)cc(OC)c1OC [Compound 407]
< 1.02 | > 11.4 | 6.1 to 8.9 | < 1.02 | < 1.02 | < 1.02 | < 1.02 | < 1.02 | 1.02 to 6.1 | 8.9 to 11.4 | 1.02 to 6.1 | < 1.02 | > 11.4 | < 1.02 | > 11.4 | < 1.02 | COc1cc(Nc2ncnc(-n3ccc4cc(O)ccc43)n2)cc(OC)c1OC [Compound 202]

More lines, now with the values behind:

SMILES | IC50 (FGFR1) [µM] | IC50 (Zap-70) [µM] | IC50 (Tek) [µM] | IC50 (Kdr) [µM] | IC50 (Flt-1) [µM] | IC50 (Itk) [µM] | IC50 (Src) [µM] | IC50 (PDGFRB) [µM] | IC50 (ErbB4) [µM] | IC50 (AKT) [µM] | IC50 (c-Met) [µM] | IC50 (Fyn) [µM] | IC50 (EGFR) [µM] | IC50 (Lck) [µM] | IC50 (Hck-1) [µM] | IC50 (Lyn) [µM]
OCc1cccc(Nc2ncnc(Nc3cc(-c4ccco4)n[nH]3)n2)c1 [Compound 429] | < 1.14 | > 12.9 | 10 to 12.9 | < 1.14 | < 1.14 | 1.14 to 6.87 | < 1.14 | < 1.14 | 1.14 to 6.87 | 1.14 to 6.87 | < 1.14 | 1.14 to 6.87 | 1.14 to 6.87 | 1.14 to 6.87 | > 12.9 | < 1.14
COc1cc(Nc2ncnc(-n3c(Nc4ccc5cn[nH]c5c4)nc4ccccc43)n2)cc(OC)c1OC [Compound 406] | < 0.785 | > 8.83 | > 8.83 | 0.785 to 4.71 | 4.71 to 6.87 | > 8.83 | > 8.83 | 0.785 to 4.71 | > 8.83 | > 8.83 | > 8.83 | 0.785 to 4.71 | > 8.83 | 0.785 to 4.71 | > 8.83 | 0.785 to 4.71
NCc1ccc(Nc2ncnc(Nc3cc(-c4ccco4)n[nH]3)n2)cc1 [Compound 437] | < 1.15 | > 12.9 | 6.89 to 10 | < 1.15 | 1.15 to 6.89 | 1.15 to 6.89 | 1.15 to 6.89 | < 1.15 | 1.15 to 6.89 | > 12.9 | 1.15 to 6.89 | 1.15 to 6.89 | 1.15 to 6.89 | 1.15 to 6.89 | 10 to 12.9 | 1.15 to 6.89
COc1cc(Nc2ncnc(-n3c(N)nc4ccccc43)n2)cc(OCCN2CCOCC2)c1OC [Compound 466] | < 0.812 | > 9.14 | 7.11 to 9.14 | < 0.812 | < 0.812 | 4.87 to 7.11 | 0.812 to 4.87 | < 0.812 | > 9.14 | > 9.14 | 0.812 to 4.87 | 0.812 to 4.87 | > 9.14 | < 0.812 | > 9.14 | < 0.812
